According to ChEMBL document CHEMBL4825698, “Identification of novel benzothiopyranones with ester and amide motifs derived from active metabolite as promising leads against Mycobacterium tuberculosis” (Eur J Med Chem, 2021):
Values after ≈ are worked out from the molar mass of the structure shown.

Assays:
[1] = tested on: Mycobacterium tuberculosis; test: Antitubercular activity against isoniazid,streptomycin,rifampicin,ethambutol,para-aminosalicylate,prothionamide,capreomycin-resistant Mycobacterium tuberculosis clinical isolate 14862 assessed as bacterial growth inhibition incubated for 7 days by MABA assay; type: functional; details: clinical isolate 14862, 168 h, time 7 day
[2] = tested on: Mycobacterium tuberculosis; test: Antitubercular activity against isoniazid,streptomycin,rifampicin,ethambutol, rifabutin, para-aminosalicylat, ofloxacin-resistant Mycobacterium tuberculosis clinical isolate 13946 assessed as inhibition of bacterial growth incubated for 7 days by MABA assay; type: functional; details: clinical isolate 13946, 168 h, time 7 day

## O=c1cc(N2CCN(CC3CCC(OS(=O)(=O)c4cccnc4)CC3)CC2)sc2c([N+](=O)[O-])cc(C(F)(F)F)cc12 (centres undefined)
[1]
  MIC: < 0.001 µg/mL
[2]
  MIC: < 0.001 µg/mL

## CO[C@H]1/C=C/O[C@@]2(C)Oc3c(C)c(O)c4c(O)c(c(/C=N/N5CCN(C)CC5)c(O)c4c3C2=O)NC(=O)/C(C)=C\C=C\[C@H](C)[C@H](O)[C@@H](C)[C@@H](O)[C@@H](C)[C@H](OC(C)=O)[C@@H]1C [RIFAMPIN]
[1]
  MIC: > 10 µg/mL
[2]
  MIC: > 10 µg/mL

## CS(=O)(=O)OC1CCC(CN2CCN(c3cc(=O)c4cc(C(F)(F)F)cc([N+](=O)[O-])c4s3)CC2)CC1 (centres undefined)
[1]
  MIC: 0.001 µg/mL (≈ 0.00182 µM)
[2]
  MIC: < 0.001 µg/mL

## CC(=O)OC1CCC(CN2CCN(c3cc(=O)c4cc(C(F)(F)F)cc([N+](=O)[O-])c4s3)CC2)CC1 (centres undefined)
[1]
  MIC: 0.062 µg/mL (≈ 0.121 µM)
[2]
  MIC: 0.062 µg/mL (≈ 0.121 µM)

## NNC(=O)c1ccncc1 [ISONIAZID]
[1]
  MIC: > 10 µg/mL
[2]
  MIC: > 10 µg/mL

## O=C(OC1CCC(CN2CCN(c3cc(=O)c4cc(C(F)(F)F)cc([N+](=O)[O-])c4s3)CC2)CC1)c1ccccc1 (centres undefined)
[1]
  MIC: 0.162 µg/mL (≈ 0.281 µM)
[2]
  MIC: 0.216 µg/mL (≈ 0.375 µM)

## O=c1cc(N2CCN(CC3CCC(OS(=O)(=O)c4ccccc4)CC3)CC2)sc2c([N+](=O)[O-])cc(C(F)(F)F)cc12 (centres undefined)
[1]
  MIC: 0.002 µg/mL (≈ 0.00327 µM)
[2]
  MIC: 0.001 µg/mL (≈ 0.00163 µM)
